Tested on: skin
Test: Affymetrix microarray of skin, DBP-4 hr and analogs vs. untreated; gene selection by log-2 fold change, Wilcoxon, Kendall tau (Tables 8, 9)
Type: in vivo, mouse
[1] = Kendall tau, expression vs. output

CCCCOC(=O)c1ccccc1C(=O)OCCCC [DBP, dibutylphthalate]
Oxr1 NM_001130166_at Kendall [1]: Yes | Pgam2 NM_018870_at Kendall [1]: No | Pigyl NM_001082532_at Kendall [1]: Yes | Pparg NM_001127330_at Kendall [1]: Yes | Ppih NM_001110129_at Kendall [1]: Yes | Prg4 NM_021400_at Kendall [1]: No | Retnla NM_020509_at Kendall [1]: No | Rffl NM_001007465_at Kendall [1]: Yes | Rn18s NR_003278_at Kendall [1]: No | Rpl3l NM_025425_at Kendall [1]: No | Slc39a14 NM_001135151_at Kendall [1]: Yes | Sln NM_025540_at Kendall [1]: No | Smpx NM_025357_at Kendall [1]: No | Tnfrsf9 NM_001077508_at Kendall [1]: Yes | Tnfrsf9 NM_001077509_at Kendall [1]: Yes | Tnni1 NM_021467_at Kendall [1]: No | Trdn NM_029726_at Kendall [1]: No | Trf NM_133977_at Kendall [1]: No | Trp63 NM_001127259_at Kendall [1]: Yes | Trp63 NM_001127260_at Kendall [1]: Yes | Trp63 NM_001127262_at Kendall [1]: Yes | Trp63 NM_001127264_at Kendall [1]: Yes | Ttn NM_028004_at Kendall [1]: No | Wbp1 NM_001083922_at Kendall [1]: Yes | Wbp1 NM_001083923_at Kendall [1]: Yes | Wfdc2 NM_026323_at Kendall [1]: No | Zfp68 NM_001044747_at Kendall [1]: Yes | Zfp187 NM_001013786_at Kendall [1]: Yes | Zfp518b NM_001081144_at Kendall [1]: Yes | Zfp943 NM_001025373_at Kendall [1]: Yes | Wilcoxon (Map3k8 NM_007746_at, DBP-4 hr vs. untreated): No | Kendall (Map3k8 NM_007746_at, Kendall tau coefficient): No | DBP Expression: Adam8 (NM_007403_at, DBP-4 hr): 8.84 | DBP Expression: Birc3 (NM_007464_at, DBP-4 hr): 10.36 | DBP Expression: Btg2 (NM_007570_at, DBP-4 hr): 10.63 | DBP Expression: Cebpd (NM_007679_at, DBP-4 hr): 10.17 | DBP Expression: Socs2 (NM_007706_at, DBP-4 hr): 8.92 | DBP Expression: Socs3 (NM_007707_at, DBP-4 hr): 9.48 | DBP Expression: Map3k8 (NM_007746_at, DBP-4 hr): 8.72 | DBP Expression: Csf2rb (NM_007780_at, DBP-4 hr): 7.73 | DBP Expression: Csrp1 (NM_007791_at, DBP-4 hr): 9.89 | DBP Expression: Egr1 (NM_007913_at, DBP-4 hr): 12.15 | DBP Expression: F2rl1 (NM_007974_at, DBP-4 hr): 9.38 | DBP Expression: Fgfbp1 (NM_008009_at, DBP-4 hr): 11.47 | DBP Expression: Gjb2 (NM_008125_at, DBP-4 hr): 8.85 | DBP Expression: Gpr65 (NM_008152_at, DBP-4 hr): 5.48 | DBP Expression: Cxcl1 (NM_008176_at, DBP-4 hr): 10.24 | DBP Expression: Gyk (NM_008194_at, DBP-4 hr): 9.63 | DBP Expression: Hdc (NM_008230_at, DBP-4 hr): 8.51 | DBP Expression: Il10ra (NM_008348_at, DBP-4 hr): 6.97 | DBP Expression: Il1b (NM_008361_at, DBP-4 hr): 7.67 | DBP Expression: Il7r (NM_008372_at, DBP-4 hr): 7.70 | DBP Expression: Junb (NM_008416_at, DBP-4 hr): 9.71 | DBP Expression: Krt6a (NM_008476_at, DBP-4 hr): 10.76 | DBP Expression: Mt2 (NM_008630_at, DBP-4 hr): 13.23 | DBP Expression: Serpine1 (NM_008871_at, DBP-4 hr): 8.32 | DBP Expression: Cxcl2 (NM_009140_at, DBP-4 hr): 8.67 | DBP Expression: Sprr1a (NM_009264_at, DBP-4 hr): 10.84 | DBP Expression: Stc1 (NM_009285_at, DBP-4 hr): 7.56 | DBP Expression: Tnfaip2 (NM_009396_at, DBP-4 hr): 8.85 | DBP Expression: Tnfaip3 (NM_009397_at, DBP-4 hr): 7.22 | DBP Expression: Tnfaip6 (NM_009398_at, DBP-4 hr): 8.79 | DBP Expression: Traf1 (NM_009421_at, DBP-4 hr): 6.04 | DBP Expression: Ccrn4l (NM_009834_at, DBP-4 hr): 10.05 | DBP Expression: Cd44 (NM_009851_at, DBP-4 hr): 9.82 | DBP Expression: Ch25h (NM_009890_at, DBP-4 hr): 7.68 | DBP Expression: Cish (NM_009895_at, DBP-4 hr): 9.37 | DBP Expression: Eif1a (NM_010120_at, DBP-4 hr): 9.39 | DBP Expression: Epha2 (NM_010139_at, DBP-4 hr): 8.60 | DBP Expression: Fkbp5 (NM_010220_at, DBP-4 hr): 8.58 | DBP Expression: Fosl1 (NM_010235_at, DBP-4 hr): 6.85 | DBP Expression: Hbegf (NM_010415_at, DBP-4 hr): 8.85 | DBP Expression: Nr4a1 (NM_010444_at, DBP-4 hr): 10.34 | DBP Expression: Icam1 (NM_010493_at, DBP-4 hr): 10.54 | DBP Expression: Ier2 (NM_010499_at, DBP-4 hr): 10.73 | DBP Expression: Cyr61 (NM_010516_at, DBP-4 hr): 9.37 | DBP Expression: Jun (NM_010591_at, DBP-4 hr): 9.74 | DBP Expression: Osmr (NM_011019_at, DBP-4 hr): 7.49 | DBP Expression: Plaur (NM_011113_at, DBP-4 hr): 7.68 | DBP Expression: Rab20 (NM_011227_at, DBP-4 hr): 6.73 | DBP Expression: Ccl12 (NM_011331_at, DBP-4 hr): 8.47 | DBP Expression: Ccl2 (NM_011333_at, DBP-4 hr): 9.45 | DBP Expression: Slc7a5 (NM_011404_at, DBP-4 hr): 10.00 | DBP Expression: Bhlhe40 (NM_011498_at, DBP-4 hr): 10.32 | DBP Expression: Cirh1a (NM_011574_at, DBP-4 hr): 9.51 | DBP Expression: Zfp36 (NM_011756_at, DBP-4 hr): 10.39 | DBP Expression: Crem (NM_013498_at, DBP-4 hr): 6.91 | DBP Expression: Gzmb (NM_013542_at, DBP-4 hr): 5.74 | DBP Expression: Mt1 (NM_013602_at, DBP-4 hr): 12.73
